The source of these data is US20030228581A1, “Diagnosis and treatment for late onset neurodegenerative disorder” (priority 2002, published 2003).

The test system of experiment [1] is Hq mutant and wild type granule cells. Further details: dose or concentration left out as unconfirmed. To be noted: 24 hours.
The subject of experiment [2] is primary neuronal granule cell cultures from Hq mutant mice. The experiment can be described thus: Glutamate sensitivity of primary granule cell cultures. The format is cell-based, mouse. Further details: unit of the concentration uncertain. An excerpt: Low doses of glutamate cause neuronal excitotoxicity via NMDA receptors, while higher doses of glutamate trigger intracellular oxidative stress through the release of endogenous peroxides.

For experiment [3] the test system is unchanged. To be noted: 20 and 50 mM hydrogen peroxide, 5 hours, PI staining. On the procedure:
To determine if decrease in AIF levels leads to increased sensitivity to exogenous peroxides, primary neuronal granule cell cultures from Hq mutant mice were treated with increasing doses of hydrogen peroxide (0, 5, 20, 50 mM) for 5 hours and then stained with propidium iodide (PI) to identify apoptotic cells.

Experiment [4] has as its system mutant and wildtype embryonic cortical cells. Particulars: hydrogen peroxide for 24 hours, any peroxide concentration.
Experimental: To determine if increased peroxide sensitivity due to loss of wild-type levels of AIF is cell-specific, primary cultures of mutant and wildtype embryonic cortical cells were treated under the identical conditions used for granule cell cultures.

Regarding `COc1cc([C@@H]2c3cc4c(cc3[C@@H](O[C@@H]3O[C@@H]5CO[C@@H](C)O[C@H]5[C@H](O)[C@H]3O)[C@H]3COC(=O)[C@H]23)OCO4)cc(OC)c1O` [etoposide], the “cell death, Hq mutant versus wild type granule cells” value in experiment [1] was “no significant difference in cell death”. In the case of `N[C@@H](CCC(=O)O)C(=O)O` [glutamate], the “Hq mutant granule cell death” value in experiment [2] (higher doses of glutamate (2000 (unit uncertain))) was “significant increases in Hq mutant granule cell death”. Besides, in experiment [2] (low concentrations of glutamate (100 (unit uncertain))), the “cell viability, mutant versus wild type granule cells” value is “Cell viability was similar”. For `OO` [hydrogen peroxide], in experiment [3], the “cell death, Hq mutant versus wild-type cultures” value is recorded as “Significantly more cell death”. Further, the “viability, mutant versus wild type cortical cells” value in experiment [4] is given as “no difference in viability”. Take `CN[C@@H]1C[C@H]2O[C@@](C)([C@@H]1OC)n1c3ccccc3c3c4c(c5c6ccccc6n2c5c31)C(=O)NC4` [staurosporine]: the “cell death, Hq mutant versus wild type granule cells” value in experiment [1] was “no significant difference in cell death”.
